# Counter-ions that a name gives are not always drawn. Like-named read-outs stand apart in the source and are kept apart here.
# Experiments:
# [1] = target: Amyloid-beta(1-40) binding to heparin (HS-GAG) (Homo sapiens, UniProt P05067); test: Inhibition of Amyloid-beta(1-40) binding to immobilized heparin-BSA (ELISA); set-up: species or system porcine; conditions: for IC50: Abeta(1-40), co-incubation on heparin-BSA plates; for inhibition at 30 µM: read-out: Abeta40/Heparin Activity (% inhibition class)
# Method: (§1) Porcine intestinal mucosa heparin conjugated to Bovine Serum Albumin (Heparin-BSA) was prepared as described (Najjam, S. et al. 1997, Cytokine 12, 1013-1022). Heparin is a sulfated HS-GAG and is commonly used as a HS-GAG in biochemical and binding assays (Lindahl, U. and Kjellen, L. (2013) ibid). Heparin-BSA at 0.01 mg/ml in Phosphate Buffered Saline (PBS; pH 7.4) was added to a 96 well polystyrene ELISA plate (NUNC Cat. No. 449824; 100 μl per well) and incubated Over Night (ON) at 4 degrees Celsius. For negative controls, ELISA plates were coated with BSA instead of Heparin-BSA, using the same procedure. Following the incubation, the plate was washed consecutively, by immersion, with de-ionized water and PBS (pH 7.4). The ELISA plate was then blocked with nonfat milk (2%, 200 μl per well) for 2 hours at Room Temperature (RT) with gentle shaking. Following blocking, the plate was washed with de-ionized water then PBS (pH 7.4). GBAPs were dissolved and diluted in PBS (pH 6.5, supplemented with 0.1% BSA) at desired concentrations, added to the ELISA plates containing immobilized Heparin-BSA (100 μl per well) and incubated for 2 hours at RT with gentle shaking. Following incubation, the plate was washed with de-ionized water and three times with PBS (pH 6.5) plus Tween. Bound GBAP was detected by a monoclonal antibody specific for that GBAP, followed by incubation with secondary antibody conjugated to horseradish peroxidase (HRP). Antibody was diluted in PBS (pH 6.5 supplemented with 1% BSA). Following each incubation with antibody, the plate was washed with de-ionized water and three times with PBS (pH 6.5) wash buffer containing 0.1% Tween. The peroxidase substrate chromogen, TMB (Dako Cat. No. S1599) was added (100 μl per well) to the ELISA plate and incubated at room temperature. After 5 minutes ELISA Stop Solution (hydrochloric acid 1N, sulfuric acid 3N) was added (100 μl per well) to stop the peroxidase catalyzed colorimetric reaction. The Optical Density of the samples was measured at 450 nm using an ELISA plate reader (BioTek Synergy H1). Following color development, the % inhibition compared to control (BSA-coated plates) was determined. IC-50s were calculated using GraphPad Prism software.
# The assay was performed as described in Example 43, with the following modifications. Following to coating the plates with Heparin-BSA, plates were washed as described. The compounds were dissolved in DMSO at 10 mM final concentration and further diluted prior to assay. DMSO concentration in the screening well was up to 2%. Individual compounds were co-incubated with Beta-amyloid peptides on plates containing immobilized heparin. Beta-amyloid (1-42) was purchased from rPeptide (Cat. No. A1163) and used to prepare oligomers according to Stine et al., 2003 (J Biol Chem. 278(13):11612-22) as follows. 1,1,1,3,3,3-Hexafluoro-2-propanol- (HFIP; Sigma Cat. No. 105228)-treated Beta amyloid (1-42) was dissolved in dry DMSO (Sigma Cat. No. D2650) to 5 mM concentration. Dissolved Beta amyloid (1-42) was then diluted to 100 μM in ice-cold cell culture medium (phenol red-free Ham's F-12; Caisson Labs, Cat. No. HFL05), followed immediately by vortexing for 30 seconds, and incubating at 4 degrees Celsius for 24 h. Resulting Beta amyloid (1-42) oligomers were centrifuged at 12,000 rpm for 10 min at 4 degree Celsius to remove aggregates. Oligomers were then quickly frozen and kept in aliquots at −80 degrees Celsius. Beta-amyloid (1-40) from rPeptide (Cat No. A1153) was dissolved in DMSO, quickly frozen and kept in aliquots at −80 degrees Celsius. Beta-amyloid (1-42) oligomers or Beta-amyloid (1-40) diluted in PBS (pH 6.5, supplemented with BSA, 0.1%) were added to the ELISA plate (100 μl per well) and incubated for 2 hours at RT with gentle shaking. Following the incubation, the plate was washed with de-ionized water and three times with PBS (pH 6.5) plus Tween. […]
# [2] = target: T1, SAA binding to heparin (HS-GAG) (Homo sapiens, UniProt P0DJI8); test: Inhibition of SAA binding to immobilized heparin-BSA (ELISA); set-up: species or system porcine
# T1 sequence (P0DJI8 19-122): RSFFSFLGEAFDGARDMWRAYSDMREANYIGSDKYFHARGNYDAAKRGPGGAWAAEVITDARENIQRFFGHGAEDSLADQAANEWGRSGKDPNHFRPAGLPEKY
# Method: as §1
# The assay was performed as described in Example 43, with the following modifications. Following to coating the plates with Heparin-BSA, plates were washed as described. The compounds were dissolved in DMSO at 10 mM final concentration and further diluted prior to assay. DMSO concentration in the screening well was up to 2%. Individual compounds were co-incubated with SAA on plates containing immobilized heparin. Serum amyloid A (SAA) from PeProtech (NJ, USA, Cat. No. 300-53) was dissolved in DMSO, quickly frozen and kept in aliquots at −80 degrees Celsius. SAA dissolved in Tris buffer (pH 6.5, supplemented with BSA, 0.1%) was added to the ELISA plate (100 μl per well) and incubated for 2 hours at RT with gentle shaking. Following the incubation, the plate was washed with de-ionized water and three times with Tris Buffered Saline (TBS, pH 6.5) plus Tween. Bound SAA was detected by Anti-SAA Monoclonal Antibody (R&D System Cat. No. MAB30192), followed by secondary anti-IgG antibody conjugated to HRP (R&D System, Cat. No. HAF007). Antibody was diluted in TBS antibody buffer (pH6.5 supplemented with 1% BSA). Following each incubation with antibody, the plate was washed with de-ionized water and three times with TBS (pH6.5) wash buffer containing 0.1% Tween. Following to color development with TMB, as described in Example 43, the Optical Density of the samples was measured at 450 nm using an ELISA plate reader. Following color development, the % inhibition compared to control (no compound, DMSO control) for every compound was determined.
# As described in Example 43, Heparin in the form of Heparin-BSA conjugate is used as a source of HS-GAG. For each compound IC-50 value in SAA—heparin-BSA binding assay is shown in μM (micromolar). […]
# [3] = Abeta40/Heparin Activity (IC-50)
# [4] = read-out: Serum Amyloid A/Heparin Activity (% inhibition class)
# [5] = read-out: Serum Amyloid A/Heparin Activity (IC-50); SAA, heparin-BSA
# [6] = read-out: Abeta40/Heparin Activity (IC-50)
# [7] = SAA, heparin-BSA; read-out: Serum Amyloid A/Heparin Activity (IC-50)
# Chain of Amyloid-beta(1-40) binding to heparin (HS-GAG) (P05067 672-711): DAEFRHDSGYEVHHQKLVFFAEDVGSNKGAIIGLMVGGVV
Compound,"IC50 [1, 3]","inhibition at 30 µM [2, 4]","IC50 [2, 5]",further results
"Cc1cn(-c2ccc(Nc3cncc4cc(Cl)ccc34)cn2)c(C)n1 [Compound 37, 7-chloro-N-(6-(2,4-dimethyl-1H-imidazol-1-yl)pyridin-3-yl)isoquinolin-4-amine phosphoric acid salt]",45.6 µM,< 30%,,
"CC(=NNc1ccnc2cc(Cl)ccc12)c1ccc(-n2ccnc2)cc1 [Compound 36, 4-(2-(1-(4-(1H-imidazol-1-yl)phenyl)ethylidene)hydrazineyl)-7-chloroquinoline phosphate]",13.8 µM,,22 µM,
"C[n+]1ccn(-c2ccc(Nc3ncnc4cc(Cl)ccc34)cn2)c1 [Compound 43, 1-(5-((7-chloroquinazolin-4-yl)amino)pyridin-2-yl)-3-methyl-1H-imidazol-3-ium iodide phosphoric acid salt]",,,31.5 µM,inhibition at 30 µM [1]: < 30%
"C[N+](C)(C)Cc1ccc(/C=N\Nc2ccnc3ccc(Cl)cc23)cc1 [Compound 4, (Z)-1-(4-((2-(6-chloroquinolin-4-yl)hydrazineylidene)methyl)phenyl)—N,N,N-trimethylmethanaminium iodide]",51.3 µM,,,"inhibition at 30 µM ([2]; 30 μM compound; SAA, heparin-BSA; read-out: Serum Amyloid A/Heparin Activity (% inhibition class)): < 30%"
"CC(=NNc1ccnc2cc(Cl)ccc12)c1ccc(-n2cc[n+](C)c2)nc1 [Compound 23, 1-(5-(1-(2-(7-chloroquinolin-4-yl)hydrazineylidene)ethyl)pyridin-2-yl)-3-methyl-1H-imidazol-3-ium iodide]",,< 30%,,inhibition at 30 µM [1]: > 30%
"Cc1ncn(-c2ccc(Nc3ncnc4cc(Cl)ccc34)cn2)c1C [Compound 25, 7-chloro-N-(6-(4,5-dimethyl-1H-imidazol-1-yl)pyridin-3-yl)quinazolin-4-amine]",1.7 µM,,40.9 µM,
"C(=N\Nc1ccc2c3c(cccc13)CC2)/c1ccc(-n2ccnc2)cc1 [Compound 8, (E)-1-(4-((2-(1,2-dihydroacenaphthylen-5-yl)hydrazineylidene)methyl)phenyl)-1H-imidazole]",,< 30%,,inhibition at 30 µM [1]: < 30%
"C/C(=N\Nc1ncnc2cc(Cl)ccc12)c1cccc(N2CCN(C)CC2)c1 [Compound 30, 7-chloro-4-(2-(1-(3-(4-methylpiperazin-1-yl)phenyl)ethylidene)hydrazineyl)quinazoline]",,< 30%,,inhibition at 30 µM [1]: > 30%
"Clc1ccc2c(Nc3ccc(-n4cncn4)nc3)ccnc2c1 [Compound 44, N-(6-(1H-1,2,4-triazol-1-yl)pyridin-3-yl)-7-chloroquinolin-4-amine]",19.3 µM,,17.4 µM,
"COc1ccc2c(NN=Cc3ccc(-n4ccnc4)c(C)c3)ccnc2c1 [Compound 12, 4-(2-(4-(1H-imidazol-1-yl)-3-methylbenzylidene)hydrazineyl)-7-methoxyquinoline]",17.9 µM,,31.7 µM,
"C/C(=N\Nc1ncnc2cc(Cl)ccc12)c1ccc(-n2cc[n+](C)c2)nc1 [Compound 17, (E)-1-(5-(1-(2-(7-chloroquinazolin-4-yl)hydrazineylidene)ethyl)pyridin-2-yl)-3-methyl-1H-imidazol-3-ium iodide phosphoric acid salt]",28.1 µM,,34.9 µM,
"Cc1ncn(-c2ncc(Nc3ncnc4cc(Cl)ccc34)cc2O)c1C [Compound 40, 5-((7-chloroquinazolin-4-yl)amino)-2-(4,5-dimethyl-1H-imidazol-1-yl)pyridin-3-ol phosphoric acid salt]",,> 30%,,inhibition at 30 µM [1]: < 30%
"C/C(=N\Nc1nncc2cc(Cl)ccc12)c1ccc(-n2cc(C)nc2C)nc1 [Compound 24, (E)-6-chloro-1-(2-(1-(6-(2,4-dimethyl-1H-imidazol-1-yl)pyridin-3-yl)ethylidene)hydrazineyl)phthalazine]",,,,"IC50 [1, 6]: 6.42 µM; IC50 [2, 7]: 7.89 µM"
"C/C(=N\Nc1ncnc2cc(F)ccc12)c1ccc(-n2cnc(C)c2C)nc1 [Compound 21, (E)-4-(2-(1-(6-(4,5-dimethyl-1H-imidazol-1-yl)pyridin-3-yl)ethylidene)hydrazineyl)-7-fluoroquinazoline]",,,,"IC50 [1, 6]: 7.41 µM; IC50 [2, 7]: 85.2 µM"
"C/C(=N\Nc1ncnc2ccccc12)c1ccc(-n2cc(C)nc2C)nc1 [Compound 19, (E)-4-(2-(1-(6-(2,4-dimethyl-1H-imidazol-1-yl)pyridin-3-yl)ethylidene)hydrazineyl)quinazoline]",10.2 µM,,8.59 µM,
"Cc1ncn(-c2ccc(/C=N\Nc3ncnc4cc(Cl)ccc34)cn2)c1C [Compound 15, 7-chloro-4-(2-((6-(4,5-dimethyl-1H-imidazol-1-yl)pyridin-3-yl)methylene)hydrazineyl)quinazoline hydrochloride]",23 µM,,12.3 µM,
"C/C(=N\Nc1ncnc2cc(Cl)ccc12)c1ccc(-n2cc(C)nc2C)nc1 [Compound 27, (E)-7-chloro-4-(2-(1-(6-(2,4-dimethyl-1H-imidazol-1-yl)pyridin-3-yl)ethylidene)hydrazineyl)quinazoline hydrochloride]",2.2 µM,,,"IC50 ([2]; SAA, heparin-BSA; hydrochloride; read-out: Serum Amyloid A/Heparin Activity (IC-50)): 24.7 µM"
"C/C(=N\Nc1ncnc2cc(Cl)ccc12)c1ccc(-n2cncn2)nc1 [Compound 32, (E)-4-(2-(1-(6-(1H-1,2,4-triazol-1-yl)pyridin-3-yl)ethylidene)hydrazineyl)-7-chloroquinazoline]",,> 30%,,
"C/C(=N\Nc1ncnc2cc(Cl)ccc12)c1cccc(CN(C)C)c1 [Compound 29, 1-(3-(1-(2-(7-chloroquinazolin-4-yl)hydrazineylidene)ethyl)phenyl)—N,N-dimethylmethanamine]",,< 30%,,

# — US20240398783A1, “Compounds and Pharmaceutical Compositions Comprising Inhibitors of Amyloid Peptide Interactions with Glycosaminoglycans, Methods of Treatment and Use Thereof” (Gismo Therapeutics, Inc., priority 2021, published 2024)
